Earlier results, collected in patent US9486545B2, “Method of screening for colon cancer using biomarkers” (H. Lee Moffitt Cancer Center and Research Institute, Inc., priority 2011, dated 2016).

Tested on: TLR4

For `CCOC(=O)C1=CCCC[C@H]1S(=O)(=O)Nc1ccc(F)cc1Cl` [TAK 242, ethyl (6R)-6-[N-(2-Chloro-4-fluorophenyl)sulfamoyl]cyclohex-1-ene-1-carboxylate], the IC50 is listed as 3.2 nM.
